# From US5089520A, “Method of inhibiting virus” (priority 1990, dated 1992)
# Where two headings read alike, the source gives them in different places.
# How the values were obtained:
# in vitro = format: cell-based, human; design: key to T-cells Control (score): 0: complete CPE; ±: most cells dead; 1+: about 1/4 of cells alive; 2+: about 1/2 of cells alive; 3+: about 3/4 of cells alive; 4+: all cells appear alive; details: human, leukemic t-cell line; same test protocol as Table I; read-out: toxic at (concentration)
# Experimental: (§1) After a suitable period of incubation, the cultures are scored for the presence of so-called syncytial cells (giant cells). Typical examples of such a test for the evaluation of inhibitors of HIV have been disclosed by Fung et al., Bio/Technology 5, 940-946 (1987); Tyms et al., Lancet, Oct. 31, 1987, pp. 1025-1026; Gruters et al., Nature 330, 74-77 (1987); and Walker et al., Proc Natl. Acad. Sci. USA 84, 8120-8124 (1987).
# (§2) In the present case, a human leukemic T-cell line was used which is described by Karpas, Leuk. Res. 1, 35-49 (1977). These cells were seeded into microtiter wells at a concentration of 5×10^3 cells per 0.2 ml of culture medium in each well. RPMI-1640 supplemented with 10% fetal calf serum was used as the culture medium. Each of the test compounds was added to either 4 or 6 wells of the microtiter plate. Two or three of the wells were infected with about 10^3 HIV-1 particles per well and two or three other wells were similarly infected with HV-2 particles. During the following 3 weeks, with a twice weekly change of medium containing the corresponding test compounds, the infected cells were monitored for the appearance of syncytial formations (giant cells) and eventual cytopathic effect (CPE). The non-infected cells were monitored for the possible cytotoxic effect of the test compounds. Likewise, the rate of growth was estimated in relation to growth of the control cells. The cultures were scored on a scale from 0 to 4+ by microscopic examination on the following basis:
# (§3) 1+=about 1/4 of cells alive
# (§4) 2+=about 1/2 of cells alive
# (§5) 3+=about 3/4 of cells alive
# (§6) 4+=all cells appear alive
# HIV [1] = details: literature, cited from earlier work; for inhibition of HIV / cytopathic effect (in words): in vitro
# HIV [2] = assay: In vitro HIV replication / cytopathic effect assay, HIV-infected T-cells scored 0 to 4+ (Example 13, Table I); format: cell-based; design: key to T-cells HIV-infected (score): 0: complete CPE; ±: most cells dead; 1+: about 1/4 of cells alive; 2+: about 1/2 of cells alive; 3+: about 3/4 of cells alive; 4+: all cells appear alive; details: for HIV inhibition score (inactive, scored as zero): above test protocol (Example 13), concentration not given
# Experimental: as §1, §2, §3, §4, §5, §6
# α-glucosidase I = details: literature; cited from earlier work
# HIV [3] = assay: Anti-HIV activity, CPE reduction in HIV infected T-lymphocytes (Example 14, Table II); format: cell-based; details: Human immunodeficiency virus 1, T-lymphocyte; for activity at 100 µg/mL: dosage 0.1 mg/ml; for activity at 130 µg/mL: dosage 0.13 mg/ml
# Experimental: (§7) Further testing of compounds 1 to 12 for inhibition of HIV replication was carried out to confirm the results of Example 13. To discriminate between specific anti-HIV activity and cytotoxicity, the effects of these compounds on HIV infected and non-infected T-lymphocytes were assessed in parallel. Using the T-cell line and cell free suspensions of HIV prepared from infected cultures, as in Example 13, the concentration of infectious particles (TCID, tissue culture infectious dose) was estimated using an end-point titration where the number of infectious HIV particles in each preparation was determined by the highest dilution which contained infectious HIV, as detected by syncytial formation, cytotoxicity and HIV antigen synthesis after 10 days of culture with 10^4 T-45 cells. Stock solutions of all compounds were prepared by dissolving each compound at a concentration of 1 mg/ml in growth medium. These solutions were filtered and sterilised (0.22 μm). Initially, each compound was tested at concentrations of 0.1 mg/ml and 0.5 mg/ml.
# (§8) The following Table II sets forth the cytotoxic activity (% cell death) and the anti-HIV activity (% cytopathic effect, CPE, reduction), for these compounds.
# [4] = system: human leukemic T-cell line; assay: in vitro; format: cell-based; design: key to T-cells Control (score): 0: complete CPE; ±: most cells dead; 1+: about 1/4 of cells alive; 2+: about 1/2 of cells alive; 3+: about 3/4 of cells alive; 4+: all cells appear alive; details: control cells, 3 weeks
# Experimental: as §1, §2, §3, §4, §5, §6
# [5] = Cytotoxic activity in non-infected T-lymphocytes (Example 14, Table II); format: cell-based; details: human, read-out: Cytotoxic Activity (% cell death)
# Experimental: as §7, §8
# HIV virons = details: literature; cited from earlier work
# α-glycosidase = details: literature; cited from earlier work
# glycosidase = details: literature; cited from earlier work
# mannosidase I = details: literature; cited from earlier work
# [6] = compound concentration 0.1 mg/ml
# [7] = compound concentration 0.13 mg/ml
# [8] = compound concentration 0.3 mg/ml
smiles,measurement,setting,value
"Cc1cn([C@H]2C[C@H](N=[N+]=[N-])[C@@H](CO)O2)c(=O)[nH]c1=O [AZT, 3'-azido-3'-deoxythymidine, reference compound]",MCC,in vitro,0.01 µg/mL
same,inhibition of HIV / cytopathic effect (in words),HIV [1],shown to inhibit replication of the virus in vitro
"C[C@@H]1NC[C@@H](O)[C@H](O)[C@@H]1O [1,5-dideoxy-1,5-imino-L-fucitol, 1,5-Dideoxy-1,5-imino-L-fucitol]","HIV inhibition score (inactive, scored as zero)",HIV [2],zero
CN1C[C@H](O)[C@@H](O)[C@H](O)[C@H]1CO [N-methyl derivative of deoxynojirimycin],glucosidase I inhibitory activity (in words),α-glucosidase I,gluosidase I inhibitory activity
same,inhibition of HIV / cytopathic effect (in words),HIV [1],having activity against HIV
"COC(=O)CCCCCN1C[C@@H](O)[C@H](O)[C@H](O)[C@@H]1C [Compound 12, 1,5-Dideoxy-1,5-imino-[N-ω-methyl caproate]-L-fucitol]",activity at 100 µg/mL,HIV [3],75%
same,activity at 250 µg/mL,HIV [3]; dosage 0.25 mg/ml,90%
same,T-cells Control (score),[4]; compound concentration 0.03 mg/ml,4+
same,cytotoxicity,[5]; dosage 0.1 mg/ml,0%
O[C@H]1[C@H](O)[C@@H](O)CN2CC[C@H](O)[C@H]12 [castanospermine],glucosidase I inhibitory activity (in words),α-glucosidase I,α-glucosidase I inhibitor
same,inhibition of HIV / cytopathic effect (in words),HIV [1],inhibition of the cytopathic effect (CPE)
same,effect on HIV / virion infectivity (in words),HIV [1],only a modest reduction in virion infectivity
same,effect on glycosylation of HIV virons and entry into target cells (in words),HIV virons,"interfere with normal glycosylation of HIV virons, thereby altering the envelope glycoprotein and preventing entry of HIV into target cells"
OC[C@H]1NCC[C@@H](O)[C@@H]1O [fagomine],α-glycosidase inhibitory activity (in words),α-glycosidase,α-glycosidase inhibitory activity
same,inhibition of HIV / cytopathic effect (in words),HIV [1],no HIV inhibition was observed
OC[C@H]1NC[C@@H](O)[C@@H]1O [D-enantiomer],inhibition of HIV / cytopathic effect (in words),HIV [1],very little effect on HIV replication
CN1C[C@H](O)[C@@H](O)[C@@H]1CO [Compound 5],activity at 100 µg/mL,HIV [3],25%
same,T-cells Control (score),[4]; [6],4+
same,cytotoxicity,[5]; dosage 0.1 mg/ml,0%
"C[C@@H]1NC(=O)[C@@H](O)[C@H](O)[C@@H]1O [Compound 10, 1,5-dideoxy-1,5-imino-L-fuconolactam]",activity at 100 µg/mL,HIV [3],50%
same,T-cells Control (score),[4]; [6],4+
same,cytotoxicity,[5]; dosage 0.1 mg/ml,25%
"OC[C@@H](O)[C@@H]1NC[C@@H](O)[C@H]1O [Compound 8, 1,4-Dideoxy-1,4-imino-D-talitol]",activity at 160 µg/mL,HIV [3]; dosage 0.16 mg/ml,25%
same,T-cells Control (score),[4]; compound concentration 0.16 mg/ml,4+
same,cytotoxicity,[5]; dosage 0.16 mg/ml,0%
"OC[C@H]1NC[C@H](O)[C@@H]1O [Compound 4, 1,4-Dideoxy-1,4-imino-D-ribitol]",activity at 130 µg/mL,HIV [3],50%
same,T-cells Control (score),[4]; [7],4+
same,cytotoxicity,[5]; dosage 0.13 mg/ml,0%
O[C@@H]1[C@@H](O)[C@@H](O)CN2CC[C@@H](O)[C@@H]12 [L-6-epicastanospermine],inhibition of HIV / cytopathic effect (in words),HIV [1],"neither the epimer L-1,6-diepicastanospermine nor the stereoisomer of castanospermine, L-6-epicastanospermine, were found to be inhibitory"
"OC[C@H]1[C@H](O)[C@H](O)CN1Cc1ccccc1 [Compound 7, 1,4-dideoxy-1,4-benzylimino-L-ribitol]",activity at 100 µg/mL,HIV [3],25%
same,T-cells Control (score),[4]; [6],4+
same,cytotoxicity,[5]; dosage 0.1 mg/ml,0%
"CN1[C@H](CO)[C@@H](O)[C@H](O)[C@H]1CO [Compound 1, N-Methyl derivative of dihydroxymethyldihydroxypyrrolidine]",activity at 100 µg/mL,HIV [3],25%
same,T-cells Control (score),[4]; [6],4+
same,cytotoxicity,[5]; dosage 0.1 mg/ml,0%
CN1C[C@H](O)[C@H](O)[C@H]1CO [Compound 6],activity at 100 µg/mL,HIV [3],25%
same,T-cells Control (score),[4]; [6],4+
same,cytotoxicity,[5]; dosage 0.1 mg/ml,0%
"OC[C@@H]1NC[C@@H](O)[C@H]1O [Compound 3, 1,4-Dideoxy-1,4-imino-L-ribitol]",activity at 130 µg/mL,HIV [3],25%
same,T-cells Control (score),[4]; [7],4+
same,cytotoxicity,[5]; dosage 0.13 mg/ml,0%
"C[C@H]1[C@@H](O)[C@@H](O)[C@H](O)CN1C [Compound 11, 1,5-Dideoxy-1,5-imino-[N-methyl]-L-fucitol]",activity at 100 µg/mL,HIV [3],25%
same,T-cells Control (score),[4]; [6],4+
same,cytotoxicity,[5]; dosage 0.1 mg/ml,0%
"OC[C@@H]1NC[C@H](O)[C@H]1O [Compound 2, 1,4-Dideoxy-1,4-imino-L-arabinitol]",activity at 100 µg/mL,HIV [3],50%
same,activity at 500 µg/mL,HIV [3]; dosage 0.5 mg/ml,100%
same,T-cells Control (score),[4]; [8],4+
same,T-cells HIV-infected (score),"HIV [2]; compound concentration 0.3 mg/ml, 3 weeks, HIV-1 and HIV-2",4+
same,cytotoxicity,[5]; dosage 0.1 mg/ml,0%
same,inhibition of HIV / cytopathic effect (in words),HIV [1],strong HIV inhibitory activity
"OC[C@@H]1[C@@H](O)[C@@H](O)CN1Cc1ccccc1 [1,4-dideoxy-1,4-benzylimino-D-ribitol, 1,4-Dideoxy-1,4-benzylimino-D-ribitol]","HIV inhibition score (inactive, scored as zero)",HIV [2],zero
"OC[C@H]1NC[C@H](O)[C@@H](O)[C@@H]1O [deoxynojirimycin (DNJ), deoxynojirimycin]",effect on HIV / virion infectivity (in words),HIV [1],positive effect
same,glycosidase inhibition (in words),glycosidase,glycosidase inhibitor
"OC[C@H]1NC[C@@H](O)[C@@H](O)[C@@H]1O [deoxymannojirimycin (DMJ), 1,5-dideoxy-1,5-imino-D-mannitol]",mannosidase I inhibition (in words),mannosidase I,mannosidase I inhibitor
same,effect on HIV / virion infectivity (in words),HIV [1],absence of effect
"O[C@@H]1[C@@H](O)[C@@H](O)CN2CC[C@H](O)[C@@H]12 [L-1,6-diepicastanospermine]",inhibition of HIV / cytopathic effect (in words),HIV [1],"neither the epimer L-1,6-diepicastanospermine nor the stereoisomer of castanospermine, L-6-epicastanospermine, were found to be inhibitory"
OC[C@@H]1[C@@H](O)[C@H](O)[C@@H](O)CN1Cc1ccccc1 [N-benzyl derivative],inhibition of HIV / cytopathic effect (in words),HIV [1],Neither the azofuranose analog of glucose nor the N-benzyl derivative were found to have an effect on CPE
"CN1C[C@@H](O)[C@@H](O)[C@H](O)[C@H]1CO [Compound 9, N-Methyl derivative of deoxymannojirimycin]",activity at 300 µg/mL,HIV [3]; dosage 0.3 mg/ml,25%
same,T-cells Control (score),[4]; [8],4+
same,cytotoxicity,[5]; dosage 0.3 mg/ml,0%
